Experimental data published in PubChem BioAssay AID248 (DTP/NCI, 2004).
Values joined by “and” are separate entries in the source; they are usually repeats but may differ in a detail not shown here. Equal values may be shown once. Toxic doses and inconclusive results are not listed.

Test system: L1210 leukemia ip in BDF1 mice, survival T/C
Assay: NCI In Vivo Anticancer Drug Screen. Data for tumor model L1210 Leukemia (intraperitoneal) in B6D2F1 (BDF1) mice
Conditions: endpoint: mean survival time, higher = longer survival
Outline: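 Transplantable tumor model; survival measured in treated vs vehicle control mice. Value = treated/control.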

[1] = dose: 100.0 mg/kg/injection, schedule: Q01DX009 (ip), vehicle: Klucel (hydroxypropylcellulose) (HPC)
[2] = dose: 200.0 mg/kg/injection, schedule: Q01DX009 (ip), vehicle: Klucel (hydroxypropylcellulose) (HPC)
[3] = dose: 400.0 mg/kg/injection, schedule: Q01DX009 (ip), vehicle: Klucel (hydroxypropylcellulose) (HPC)
[4] = dose: 100.0 mg/kg/injection, schedule: Q01DX001 (ip), vehicle: saline
[5] = dose: 200.0 mg/kg/injection, schedule: Q01DX001 (ip), vehicle: saline
[6] = dose: 400.0 mg/kg/injection, schedule: Q01DX001 (ip), vehicle: saline
[7] = dose: 100.0 mg/kg/injection, schedule: Q04DX003 (ip), vehicle: Klucel (hydroxypropylcellulose) (HPC)
[8] = dose: 100.0 mg/kg/injection, schedule: Q01DX009 (ip), vehicle: saline
[9] = dose: 200.0 mg/kg/injection, schedule: Q01DX009 (ip), vehicle: saline
[10] = dose: 400.0 mg/kg/injection, schedule: Q01DX009 (ip), vehicle: saline
[11] = dose: 100.0 mg/kg/injection, schedule: Q04DX002 (ip), vehicle: saline with Tween-80
[12] = dose: 200.0 mg/kg/injection, schedule: Q04DX002 (ip), vehicle: saline with Tween-80
[13] = dose: 400.0 mg/kg/injection, schedule: Q04DX002 (ip), vehicle: saline with Tween-80

O=C(Nc1cccc(F)c1)N(Cc1ccccc1)Cc1ccccc1
T/C [1]: 92 % of control | T/C [2]: 102 % of control | T/C [3]: 97 % of control

N#CC(C#N)=C(c1ccccc1)C1CCCCC1
T/C [4]: 92 % of control | T/C [5]: 94 % of control | T/C [6]: 100 % of control

COc1ccc(N(N=O)C(C)=O)cc1
T/C (dose: 5.0 mg/kg/injection, schedule: Q01DX001 (ip), vehicle: saline): 95 % of control | T/C (dose: 10.0 mg/kg/injection, schedule: Q01DX001 (ip), vehicle: saline): 97 % of control | T/C (dose: 20.0 mg/kg/injection, schedule: Q01DX001 (ip), vehicle: saline): 106 % of control | T/C (dose: 40.0 mg/kg/injection, schedule: Q01DX001 (ip), vehicle: saline): 106 % of control

CC(=O)NS(=O)(=O)c1cc(N)ccc1S(=O)(=O)c1ccc(N)cc1
T/C [4]: 94 % of control | T/C [5]: 92 % of control | T/C [6]: 92 % of control

Clc1ccccc1N=C1NN(c2c3ccccc3nc3ccccc23)Nc2ccccc21
T/C (dose: 100.0 mg/kg/injection, schedule: Q04DX003 (ip), vehicle: acetone): 94 % of control | T/C (dose: 200.0 mg/kg/injection, schedule: Q04DX003 (ip), vehicle: acetone): 90 % of control | T/C (dose: 400.0 mg/kg/injection, schedule: Q04DX003 (ip), vehicle: acetone): 87 % of control

O=c1[nH]c(=O)c2nccnc2[nH]1
T/C (dose: 25.0 mg/kg/injection, schedule: Q01DX009 (ip), vehicle: water): 109 % of control | T/C (dose: 50.0 mg/kg/injection, schedule: Q01DX009 (ip), vehicle: water): 111 % of control | T/C (dose: 100.0 mg/kg/injection, schedule: Q01DX009 (ip), vehicle: water): 104 % of control | T/C (dose: 200.0 mg/kg/injection, schedule: Q01DX009 (ip), vehicle: water): 101 % of control

CC1=NN(c2ccc(S(=O)(=O)O)cc2)C(=O)/C1=C/c1ccc(Cl)cc1Cl
T/C [4]: 110 % of control | T/C [7]: 105 % of control | T/C [5]: 96 % of control | T/C (dose: 200.0 mg/kg/injection, schedule: Q04DX003 (ip), vehicle: Klucel (hydroxypropylcellulose) (HPC)): 97 % of control | T/C [6]: 104 % of control | T/C (dose: 400.0 mg/kg/injection, schedule: Q04DX003 (ip), vehicle: Klucel (hydroxypropylcellulose) (HPC)): 94 % of control

NNC(=O)c1c(C(N)=O)n[nH]c1C1OC(COCc2ccccc2)C(OCc2ccccc2)C1OCc1ccccc1 (stereo not given)
T/C (dose: 100.0 mg/kg/injection, schedule: Q01DX005 (ip), vehicle: saline): 97 % of control and 93 % of control | T/C (dose: 200.0 mg/kg/injection, schedule: Q01DX005 (ip), vehicle: saline): 100 % of control and 101 % of control

COC1OC1(C)C (stereo not given)
T/C [8]: 102 % of control | T/C (dose: 100.0 mg/kg/injection, schedule: Q04DX003 (ip), vehicle: saline): 104 % of control | T/C [9]: 103 % of control | T/C (dose: 200.0 mg/kg/injection, schedule: Q04DX003 (ip), vehicle: saline): 102 % of control | T/C [10]: 100 % of control | T/C (dose: 400.0 mg/kg/injection, schedule: Q04DX003 (ip), vehicle: saline): 98 % of control

O=C(Nc1ccc(C(=O)Nc2ccc(C3=NCCN3)cc2)cc1)Nc1ccc(C2=NCCN2)cc1
T/C (dose: 1.88 mg/kg/injection, schedule: Q01DX Z (ip), vehicle: saline): 117 % of control | T/C (dose: 3.75 mg/kg/injection, schedule: Q01DX Z (ip), vehicle: saline): 117 % of control | T/C (dose: 7.5 mg/kg/injection, schedule: Q01DX Z (ip), vehicle: saline): 123 % of control | T/C (dose: 30.0 mg/kg/injection, schedule: Q01DX Z (ip), vehicle: carboxymethylcellulose (CMC)): 166 % of control | T/C (dose: 30.0 mg/kg/injection, schedule: Q01DX Z (sc), vehicle: saline): 97 % of control | T/C (dose: 44.0 mg/kg/injection, schedule: Q01DX007 (oral), vehicle: carboxymethylcellulose (CMC)): 103 % of control | T/C (dose: 60.0 mg/kg/injection, schedule: Q01DX Z (ip), vehicle: carboxymethylcellulose (CMC)): 218 % of control | T/C (dose: 60.0 mg/kg/injection, schedule: Q01DX Z (sc), vehicle: saline): 109 % of control | T/C (dose: 62.5 mg/kg/injection, schedule: Q01DX010 (oral), vehicle: saline): 109 % of control | T/C (dose: 88.0 mg/kg/injection, schedule: Q01DX007 (oral), vehicle: carboxymethylcellulose (CMC)): 101 % of control | T/C (dose: 120.0 mg/kg/injection, schedule: Q01DX Z (ip), vehicle: carboxymethylcellulose (CMC)): 192 % of control | T/C (dose: 120.0 mg/kg/injection, schedule: Q01DX Z (sc), vehicle: saline): 120 % of control | T/C (dose: 125.0 mg/kg/injection, schedule: Q01DX010 (oral), vehicle: saline): 108 % of control | T/C (dose: 175.0 mg/kg/injection, schedule: Q01DX007 (oral), vehicle: carboxymethylcellulose (CMC)): 101 % of control | T/C (dose: 240.0 mg/kg/injection, schedule: Q01DX Z (sc), vehicle: saline): 154 % of control | T/C (dose: 250.0 mg/kg/injection, schedule: Q01DX010 (oral), vehicle: saline): 106 % of control | T/C (dose: 350.0 mg/kg/injection, schedule: Q01DX007 (oral), vehicle: carboxymethylcellulose (CMC)): 100 % of control | T/C (dose: 500.0 mg/kg/injection, schedule: Q01DX010 (oral), vehicle: saline): 106 % of control | T/C (dose: 700.0 mg/kg/injection, schedule: Q01DX007 (oral), vehicle: carboxymethylcellulose (CMC)): 100 % of control

O=[N+]([O-])c1ccc(N=Cc2ccc(Cl)cc2Cl)c(O)c1
T/C [11]: 86 % of control | T/C [12]: 120 % of control | T/C [13]: 99 % of control

CC(C)CC(CC(C)C)NCC(C)OC(=O)c1ccc(N(C)C)cc1 (stereo not given)
T/C (dose: 75.0 mg/kg/injection, schedule: Q01DX001 (ip), vehicle: other): 101 % of control | T/C (dose: 150.0 mg/kg/injection, schedule: Q01DX001 (ip), vehicle: other): 106 % of control

COC(=O)CCC(C)=O
T/C [4]: 102 % of control | T/C [5]: 102 % of control | T/C [6]: 100 % of control

CCCCCCCCCCCCCCSCCCCCCSCCCCCCCCCCCCCC
T/C (dose: 100.0 mg/kg/injection, schedule: Q01DX001 (ip), vehicle: Klucel (hydroxypropylcellulose) (HPC)): 98 % of control | T/C (dose: 200.0 mg/kg/injection, schedule: Q01DX001 (ip), vehicle: Klucel (hydroxypropylcellulose) (HPC)): 93 % of control | T/C (dose: 400.0 mg/kg/injection, schedule: Q01DX001 (ip), vehicle: Klucel (hydroxypropylcellulose) (HPC)): 94 % of control

CCN(CC)CCCC(C)Nc1ncnc2c1C(c1ccccc1)C(C)(C)O2 (stereo not given)
T/C [8]: 106 % of control | T/C [9]: 101 % of control | T/C [10]: 101 % of control

CCN(CC)c1nc(SCc2ccccc2Cl)ncc1C
T/C (dose: 100.0 mg/kg/injection, schedule: Q01DX Z (ip), vehicle: methylcellulose (MC)): 93 % of control | T/C (dose: 200.0 mg/kg/injection, schedule: Q01DX Z (ip), vehicle: methylcellulose (MC)): 98 % of control

NC(=O)NC1C(c2ccccc2)=NOC1C(N)=O (stereo not given)
T/C (dose: 25.0 mg/kg/injection, schedule: Q04DX003 (ip), vehicle: Klucel (hydroxypropylcellulose) (HPC)): 94 % of control | T/C (dose: 50.0 mg/kg/injection, schedule: Q01DX009 (ip), vehicle: Klucel (hydroxypropylcellulose) (HPC)): 88 % of control | T/C (dose: 50.0 mg/kg/injection, schedule: Q04DX003 (ip), vehicle: Klucel (hydroxypropylcellulose) (HPC)): 105 % of control | T/C [1]: 93 % of control | T/C [7]: 96 % of control

CSc1cccc(N2C(=O)CC(Sc3ccccc3N)C2=O)c1 (stereo not given)
T/C [1]: 90 % of control | T/C [2]: 95 % of control | T/C [3]: 98 % of control

O=C(O)CCC(=O)CC1CCCCC1
T/C (dose: 100.0 mg/kg/injection, schedule: Q04DX003 (ip), vehicle: saline with Tween-80): 101 % of control | T/C (dose: 200.0 mg/kg/injection, schedule: Q04DX003 (ip), vehicle: saline with Tween-80): 87 % of control

C/C=C\c1ccc(OCCOC(C)=O)c(OC)c1
T/C [11]: 97 % of control | T/C [12]: 97 % of control | T/C [13]: 93 % of control

CC(=O)NCCc1ccc(NCc2cnc3nc(N)nc(N)c3n2)cc1
T/C (dose: 20.0 mg/kg/injection, schedule: Q01DX009 (ip), vehicle: Klucel (hydroxypropylcellulose) (HPC)): 98 % of control | T/C (dose: 40.0 mg/kg/injection, schedule: Q01DX009 (ip), vehicle: Klucel (hydroxypropylcellulose) (HPC)): 96 % of control | T/C (dose: 80.0 mg/kg/injection, schedule: Q01DX009 (ip), vehicle: Klucel (hydroxypropylcellulose) (HPC)): 98 % of control
